According to ChEMBL document CHEMBL3621111, “In vitro COX-1 and COX-2 enzyme inhibitory activities of iridoids from Penstemon barbatus, Castilleja tenuiflora, Cresentia alata and Vitex mollis” (Bioorg Med Chem Lett, 2015):

Columns and labels:
[1] = molecular target: Prostaglandin G/H synthase 1 (Homo sapiens) (UniProt P23219); assay: Inhibition of COX1 (unknown origin) assessed as PGH2 production at 10 uM by measuring […] level by enzyme immunoassay
[2] = molecular target: Prostaglandin G/H synthase 1 (Homo sapiens) (UniProt P23219); assay: Inhibition of COX1 (unknown origin) assessed as PGH2 production at 35 uM by measuring […] level by enzyme immunoassay
[3] = molecular target: Prostaglandin G/H synthase 1 (Homo sapiens) (UniProt P23219); assay: Inhibition of COX1 (unknown origin) assessed as PGH2 production at 100 uM by measuring […] level by enzyme immunoassay

Chain of Prostaglandin G/H synthase 1 (Homo sapiens) (P23219 whole entry): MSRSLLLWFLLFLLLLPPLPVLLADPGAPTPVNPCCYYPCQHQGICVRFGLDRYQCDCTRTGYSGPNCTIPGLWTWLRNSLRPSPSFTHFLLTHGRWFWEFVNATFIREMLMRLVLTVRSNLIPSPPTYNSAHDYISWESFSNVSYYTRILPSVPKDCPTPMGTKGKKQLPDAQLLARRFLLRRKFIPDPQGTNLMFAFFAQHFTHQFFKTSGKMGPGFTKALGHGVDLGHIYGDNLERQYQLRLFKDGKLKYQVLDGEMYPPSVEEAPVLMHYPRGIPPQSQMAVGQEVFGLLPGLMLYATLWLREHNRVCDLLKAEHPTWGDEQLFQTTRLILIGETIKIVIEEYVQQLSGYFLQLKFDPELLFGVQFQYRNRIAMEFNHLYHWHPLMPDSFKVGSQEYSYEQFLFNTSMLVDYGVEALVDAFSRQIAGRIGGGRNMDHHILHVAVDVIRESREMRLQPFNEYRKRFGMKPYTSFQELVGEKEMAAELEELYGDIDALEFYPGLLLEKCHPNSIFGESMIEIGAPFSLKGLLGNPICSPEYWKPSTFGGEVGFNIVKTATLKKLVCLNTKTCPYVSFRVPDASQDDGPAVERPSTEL

inhibition [1] [%] | inhibition [2] [%] | inhibition [3] [%] | Compound
33.4 | < 30 | < 30 | COC(=O)C1=CO[C@@H](O[C@@H]2O[C@H](CO)[C@@H](O)[C@H](O)[C@H]2O)[C@@H]2[C@H](C)[C@@H](O)C[C@H]12
33.2 | 33.4 | 51.7 | COC(=O)C1=CO[C@@H](O[C@@H]2O[C@H](CO)[C@@H](O)[C@H](O)[C@H]2O)[C@@H]2[C@H](C)C[C@@H](O)[C@]12O
51.7 | 51.4 | 48.2 | C=C1[C@H]2[C@H](O[C@@H]3O[C@H](CO)[C@@H](O)[C@H](O)[C@H]3O)OC=C(C(=O)O)[C@H]2C[C@@H]1O
< 30 | 42.6 | 42.7 | COC(=O)C1=CO[C@@H](O[C@@H]2O[C@H](CO)[C@@H](O)[C@H](O)[C@H]2O)[C@H]2[C@@H]1CC[C@]2(C)O
51.2 | 51.5 | 50.5 | COC(=O)C1=CO[C@@H](O[C@@H]2O[C@H](CO)[C@@H](O)[C@H](O)[C@H]2O)[C@@H]2[C@@H](C)[C@@H](O)C[C@H]12
36.9 | 36 | 35.4 | C[C@@H]1[C@H]2[C@H](O[C@@H]3O[C@H](CO)[C@@H](O)[C@H](O)[C@H]3O)OC=C(C(=O)O)[C@H]2C[C@@H]1O

Continued, compound first:

Compound | inhibition [1] [%] | inhibition [2] [%] | inhibition [3] [%]
COc1ccc(C(=O)O[C@H]2[C@@H]3C=CO[C@@H](O[C@@H]4O[C@H](CO)[C@@H](O)[C@H](O)[C@H]4O)[C@@H]3[C@@]3(CO)O[C@@H]23)cc1OC | 38.2 | 38.6 | 39.1
O=C(O)C1=CO[C@@H](O[C@@H]2O[C@H](CO)[C@@H](O)[C@H](O)[C@H]2O)[C@@H]2C(CO)=CC[C@H]12 | 55.7 | 54.1 | 55.3
C[C@@H]1CC[C@]2(O)C(C=O)=CO[C@@H](O[C@@H]3O[C@H](CO)[C@@H](O)[C@H](O)[C@H]3O)[C@H]12 | 36.3 | 36.6 | 39.9
O=C(OCC1=C[C@@H](O)[C@@H]2C=CO[C@@H](O[C@@H]3O[C@H](CO)[C@@H](O)[C@H](O)[C@H]3O)[C@H]12)c1ccc(O)cc1 | 40.3 | 40.8 | 43.4
OCC1=C[C@@H](O)[C@@H]2C=CO[C@@H](O[C@@H]3O[C@H](CO)[C@@H](O)[C@H](O)[C@H]3O)[C@H]12 | 49.9 | 48.2 | 50.2
OC[C@H]1O[C@@H](O[C@@H]2OC=C[C@H]3[C@H](O)[C@@H]4O[C@]4(CO)[C@@H]23)[C@H](O)[C@@H](O)[C@@H]1O | 44.2 | 47.6 | 63.7
CC(=O)O[C@]1(C)C[C@@H](O)[C@]2(O)C=CO[C@@H](O[C@@H]3O[C@H](CO)[C@@H](O)[C@H](O)[C@H]3O)[C@@H]21 | 38.5 | 38.6 | 39.1
C[C@@H]1CC[C@@H]2C(C=O)=CO[C@@H](O[C@@H]3O[C@H](CO)[C@@H](O)[C@H](O)[C@H]3O)[C@H]12 | 43 | 48 | 73.3
COc1ccc(C(=O)O[C@@H]2C=C(CO)[C@H]3[C@H](O[C@@H]4O[C@H](CO)[C@@H](O)[C@H](O)[C@H]4O)OC=C[C@H]32)cc1 | 35 | 34.3 | 32.8
OCC1=CC[C@@H]2C=CO[C@@H](O[C@@H]3O[C@H](CO)[C@@H](O)[C@H](O)[C@H]3O)[C@H]12 | 52.7 | 49.9 | 47.5
